“And” between values parts separate entries of the source, which are not always exact repeats. Identical values can stand only once. Like-named read-outs stand apart in the source and are kept apart here. Starred links: 1 amine or outer side, 2 acyl side, 3 side chain; linkers in the order of their positions; H or OH if unused. Positions of bridges follow the written chain, without caps; N, C: chain ends. Non-standard residues stand in square brackets, D forms with d. Residues, ends and D or L forms follow the SMILES beside them. Trp(2-yl) = O=C([C@H](Cc1c([*:3])[nH]c2ccccc12)N[*:1])[*:2]; Leu(4R-OH,5-OH) = C[C@](O)(CO)C[C@H](N)C(=O)O; cisHyp = O=C(O)[C@@H]1C[C@H](O)CN1

Results on 27 compounds are retold here after PMC3264873 (Pharmaceutical Research, 2011).

Data set [1] addresses T1, OATP1B1 (Homo sapiens, UniProt Q9Y6L6).
T1 sequence (Q9Y6L6 1-691): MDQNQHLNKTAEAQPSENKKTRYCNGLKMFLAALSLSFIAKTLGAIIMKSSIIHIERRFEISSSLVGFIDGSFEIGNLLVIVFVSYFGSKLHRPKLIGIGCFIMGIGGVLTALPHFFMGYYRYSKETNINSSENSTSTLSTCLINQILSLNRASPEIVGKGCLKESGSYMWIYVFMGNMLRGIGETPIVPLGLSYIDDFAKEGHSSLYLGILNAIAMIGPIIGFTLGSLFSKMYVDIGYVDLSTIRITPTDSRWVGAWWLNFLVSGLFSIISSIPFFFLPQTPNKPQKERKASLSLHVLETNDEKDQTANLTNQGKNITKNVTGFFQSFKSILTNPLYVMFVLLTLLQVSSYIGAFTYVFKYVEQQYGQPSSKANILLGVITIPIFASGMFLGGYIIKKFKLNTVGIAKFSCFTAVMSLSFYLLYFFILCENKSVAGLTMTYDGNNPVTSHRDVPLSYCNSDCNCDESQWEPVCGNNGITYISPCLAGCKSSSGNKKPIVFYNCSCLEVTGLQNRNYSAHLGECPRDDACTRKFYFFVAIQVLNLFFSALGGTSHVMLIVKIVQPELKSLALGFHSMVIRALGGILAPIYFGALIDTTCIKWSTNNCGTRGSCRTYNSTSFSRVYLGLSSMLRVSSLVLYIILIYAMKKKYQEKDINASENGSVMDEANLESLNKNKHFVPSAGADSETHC
The experiment in a line: Screening for inhibition of OATP1B1-mediated estradiol-17β-glucuronide uptake. Conditions: for Classification as OATP1B1 inhibitor (more than 50% inhibition of E17βG uptake): 20 μM test compound.

For data set [2] the following is noted: cited from earlier work; for Imax, maximum systemic plasma concentration of the inhibitor: amprenavir recalculated from fosamprenavir data, ref [23]–[28]; for Fa, fraction of the inhibitor dose absorbed (maximum oral bioavailability): ref [23]–[25].
Data set [3] concerns the target T1, OATP1B1. The experiment in a line: Calculation of R-values. Conditions: for R-value E: ka = 0.03, Fa published value (lopinavir Fa = 1); for Average (mean) R-value: mean of the eight R-values A–H.
The target of data set [4] is T1, OATP1B1. The experiment in a line: Concentration-dependent inhibition of OATP1B1-mediated atorvastatin uptake. The data set is classed as cell-based.
Data set [5] deals with T1, OATP1B1. The experiment in a line: Michaelis-Menten uptake kinetics in HEK293 cells stably expressing OATP1B1. The data set is classed as cell-based.
Setting [6] is: human, pH 7.4, Inhibition of E17βG uptake, 100 μM test compound (data not shown).

On to `CC(=O)Oc1ccc2c(c1)Oc1cc(OC(C)=O)ccc1C21OC(=O)c2cc(C(=O)O)ccc21` [5-CFDA], for which the “Classification as OATP1B1 inhibitor (more than 50% inhibition of E17βG uptake)” value on OATP1B1 [1] is given as “inhibitors”.
Same read-out and setting: as for `C[C@H](CCC(=O)NCCS(=O)(=O)O)[C@H]1CC[C@H]2[C@@H]3CC[C@@H]4C[C@H](O)CC[C@]4(C)[C@H]3C[C@H](O)[C@]12C` [Taurodeoxycholate], the entry is “inhibitors”.
On the same count and under the same terms, the entry for `CC[C@]1(O)C[C@@H]2CN(CCc3c([nH]c4ccccc34)[C@@](C(=O)OC)(c3cc4c(cc3OC)N(C)[C@H]3[C@@](O)(C(=O)OC)[C@H](OC(C)=O)[C@]5(CC)C=CCN6CC[C@]43[C@@H]65)C2)C1` [Vinblastine] is “inhibitors”; for `C[C@H](CCC(=O)NCCS(=O)(=O)O)[C@H]1CC[C@H]2[C@@H]3[C@H](O)C[C@@H]4C[C@H](O)CC[C@]4(C)[C@H]3CC[C@]12C` [Taurochenodeoxycholate] it is “inhibitors”.
On the same count and under the same terms, the entry for `C[C@@H]1[C@H](O)[C@@H](C)/C=C/C=C/CC/C=C/C=C/C=C/C=C/C(O[C@H]2O[C@H](C)[C@@H](O)[C@H](N)[C@@H]2O)CC2O[C@](O)(CC(O)C(O)CCC(O)CC(O)CC(O)CC(=O)O[C@H]1C)CC(O)C2C(=O)O` (stereo partly drawn) [Nystatin] is “inhibitors”.
As for `Nc1ncnc2c1ncn2CCOCP(=O)(O)O` [Adefovir], at OATP1B1 [1], the “Classification as OATP1B1 inhibitor (more than 50% inhibition of E17βG uptake)” value is given as “inhibitors”.
As usually defined, the inhibition is the share of the control response that was lost under treatment. `CC1(C)S[C@@H]2[C@H](NC(=O)Cc3ccccc3)C(=O)N2[C@H]1C(=O)O` [Penicillin G] displayed an inhibition at 5 min, 100 µM on OATP1B1 [1] (setting [6]) of 32%.
For `CC(=O)S[C@@H]1CC2=CC(=O)CC[C@]2(C)[C@H]2CC[C@@]3(C)[C@@H](CC[C@@]34CCC(=O)O4)[C@H]12` [Spironolactone], the “Classification as OATP1B1 inhibitor (more than 50% inhibition of E17βG uptake)” value on OATP1B1 [1] is on record as “inhibitors”.
What is called Ki is a dissociation constant, usually derived from enzyme kinetics or from competition with a known ligand. Read a high Ki as lower affinity. As to `CC(C)CN(C[C@@H](O)[C@H](Cc1ccccc1)NC(=O)O[C@H]1CCOC1)S(=O)(=O)c1ccc(N)cc1` [Amprenavir], in data set [2], the “Imax, maximum systemic plasma concentration of the inhibitor” value is 11.2 µM and the “Fa, fraction of the inhibitor dose absorbed (maximum oral bioavailability)” value is reported as 0.9. The “R-value B” value at OATP1B1 [3] (Eq. 2 (IC50), ka = 0.03, Fa = 1, International Transporter Consortium method) is listed as 1.21. On OATP1B1 [3] (Eq. 2 (IC50), ka = 0.1, Fa = 1), the “R-value D” value was 1.54. Also, the “R-value C” value at OATP1B1 [3] (Eq. 2 (IC50), ka = 0.1, Fa published value (lopinavir Fa = 1)) is on record as 1.49. Further, the “R-value F” value on OATP1B1 [3] (Eq. 3 (Ki), ka = 0.03, Fa = 1) is on record as 1.37. Besides, the “R-value E” value at OATP1B1 [3] (Eq. 3 (Ki)) is 1.34. Also, the “R-value H” value on OATP1B1 [3] (Eq. 3 (Ki), ka = 0.1, Fa = 1, Hirano et al. method) was 1.95. The “R-value G” value at OATP1B1 [3] (Eq. 3 (Ki), ka = 0.1, Fa published value (lopinavir Fa = 1)) is listed as 1.87. Further, the “Range of the eight R-values A–H” value on OATP1B1 [3] (all eight calculation variants) is 1.19–1.95 and < 2. For the same compound, at OATP1B1 [3], the “Average (mean) R-value” is on record as 1.49. Also, on OATP1B1 [4], the Ki was determined as 9520 nM.
Consider `C[C@H](CCC(=O)NCC(=O)O)[C@H]1CC[C@H]2[C@@H]3[C@H](O)C[C@@H]4C[C@H](O)CC[C@]4(C)[C@H]3CC[C@]12C` [Glycochenodeoxycholate], for which, at OATP1B1 [1], the “Classification as OATP1B1 inhibitor (more than 50% inhibition of E17βG uptake)” value is on record as “inhibitors”.
On the same count and under the same terms, the entry for Ivermectin is “inhibitors”; for `COC(=O)[C@H]1[C@H]2C[C@@H]3c4[nH]c5cc(OC)ccc5c4CCN3C[C@H]2C[C@@H](OC(=O)c2cc(OC)c(OC)c(OC)c2)[C@@H]1OC` [Reserpine] it is “inhibitors”; for `COc1ccc2c(c1)c(CC(=O)O)c(C)n2C(=O)c1ccc(Cl)cc1` [Indomethacin] it is “inhibitors”.
For the compound `N[C@@H](Cc1cc(I)c(Oc2cc(I)c(O)c(I)c2)c(I)c1)C(=O)O` [Levothyroxin], on OATP1B1 [1], the “Classification as OATP1B1 inhibitor (more than 50% inhibition of E17βG uptake)” value was “not identified as inhibitors”. The inhibition at 5 min, 75 µM at OATP1B1 [1] (human, pH 7.4, Inhibition of E17βG uptake, 75 μM test compound (data not shown)) is > 50%. Also, at OATP1B1 [1] (setting [6]), the inhibition at 5 min, 100 µM was > 50%.
Consider `C[C@@H]1NC(=O)[C@H](C[C@@](C)(O)CO)NC(=O)[C@@H]2Cc3c([nH]c4ccccc34)SC[C@H](NC(=O)[C@@H]([C@H](C)O)NC1=O)C(=O)N1C[C@@H](O)C[C@H]1C(=O)N[C@@H](C)C(=O)N2` [Phalloidin] (cyclo(A[dT]C[cisHyp]A[Trp(2-yl)][Leu(4R-OH,5-OH)]); thioether 3-6), for which the “Classification as OATP1B1 inhibitor (more than 50% inhibition of E17βG uptake)” value at OATP1B1 [1] is “not identified as inhibitors”. Also, on OATP1B1 [1] (human, pH 7.4), the inhibition at 5 min, 100 µM was determined as 49%.
Consider `CCOc1nc2cccc(C(=O)O)c2n1Cc1ccc(-c2ccccc2-c2nnn[nH]2)cc1` [Candesartan], for which, at OATP1B1 [1], the “Classification as OATP1B1 inhibitor (more than 50% inhibition of E17βG uptake)” value is on record as “inhibitors”.
On to `C[C@]12CC[C@@H]3c4ccc(O)cc4CC[C@H]3[C@@H]1CC[C@@H]2O[C@@H]1O[C@H](C(=O)O)[C@@H](O)[C@H](O)[C@H]1O` [Estradiol-17-β-glucuronide], for which the “Vmax of OATP1B1-mediated uptake” value at OATP1B1 [5] (E17βG 1–200 μM, 96-well plates, HEK293-OATP1B1) was 1.37 (± 0.12) pmol/min/mg protein. In addition, on OATP1B1 [5] (at 5 min (E17βG) and 2 min (atorvastatin)), the “Uptake in OATP1B1 cells relative to mock-transfected cells” value was “at least 8 times”.
Consider `CC(C)OC(=O)C(C)(C)Oc1ccc(C(=O)c2ccc(Cl)cc2)cc1` [Fenofibrate], for which the “Fa, fraction of the inhibitor dose absorbed (maximum oral bioavailability)” value in data set [2] was 0.81. In addition, the “Inhibition of atorvastatin uptake (in words)” value on OATP1B1 [4] (investigated concentration interval 0.1–100 μM, 1 μM atorvastatin) was “did not inhibit atorvastatin uptake”.
Regarding `CC/C(=C(/CC)c1ccc(O)cc1)c1ccc(O)cc1` [Diethylstilbestrol], the “Classification as OATP1B1 inhibitor (more than 50% inhibition of E17βG uptake)” value at OATP1B1 [1] is “inhibitors”.
Same read-out and setting: the entry for `CCC[C@@]1(CCc2ccccc2)CC(O)=C([C@H](CC)c2cccc(NS(=O)(=O)c3ccc(C(F)(F)F)cn3)c2)C(=O)O1` [Tipranavir] is “inhibitors”.
By IC50 is commonly meant the concentration needed to halve the response being measured. Read a high IC50 as lower potency. `COC(=O)N[C@H](C(=O)N[C@@H](Cc1ccccc1)[C@@H](O)CN(Cc1ccc(-c2ccccn2)cc1)NC(=O)[C@@H](NC(=O)OC)C(C)(C)C)C(C)(C)C` [Atazanavir]: in data set [2], the “Imax, maximum systemic plasma concentration of the inhibitor” value is 4.47 µM and the “Fa, fraction of the inhibitor dose absorbed (maximum oral bioavailability)” value is 0.68. Moreover, at OATP1B1 [3], the “R-value B” value is 2.38, the “R-value C” value is given as 3.63, the “R-value D” value is given as 4.68 and the “R-value F” value is 3.43. On OATP1B1 [3], the “R-value G” value is listed as 5.64, the “R-value H” value is on record as 7.49 and the “Average (mean) R-value” is 4.02. Further, at OATP1B1 [3] (Eq. 3 (Ki)), the “R-value E” value was 2.87. In addition, at OATP1B1 [4], half-maximal inhibition (IC50) was put at 1610 nM and the Ki turned out to be 910 nM.
Turning to `CNC(=O)c1cccnc1` [N-methylnicotinamide], the “Classification as OATP1B1 inhibitor (more than 50% inhibition of E17βG uptake)” value on OATP1B1 [1] was “inhibitors”.
Same read-out and setting: as for `O=C(O)c1cc(/N=N/c2ccc(S(=O)(=O)Nc3ccccn3)cc2)ccc1O` [Sulfasalazine], the entry is “inhibitors”; as for `CCOc1cc(CC(=O)N[C@@H](CC(C)C)c2ccccc2N2CCCCC2)ccc1C(=O)O` [Repaglinide], “classified as OATP1B1 inhibitors”.
On to `COC(=O)C1=C(C)NC(C)=C(C(=O)OCCN(C)Cc2ccccc2)C1c1cccc([N+](=O)[O-])c1` (stereo not drawn) [Nicardipine], for which, at OATP1B1 [1], the “Classification as OATP1B1 inhibitor (more than 50% inhibition of E17βG uptake)” value is “inhibitors”.
For the compound `C[C@H](CCC(=O)NCC(=O)O)[C@H]1CC[C@H]2[C@@H]3CC[C@@H]4C[C@H](O)CC[C@]4(C)[C@H]3C[C@H](O)[C@]12C` [Glycodeoxycholate], the “Classification as OATP1B1 inhibitor (more than 50% inhibition of E17βG uptake)” value on OATP1B1 [1] was “inhibitors”.
The same measure, in the same setting: as for `CN(CCOc1ccc(CC2SC(=O)NC2=O)cc1)c1ccccn1` (stereo not drawn) [Rosiglitazone], the entry is “classified as OATP1B1 inhibitors”.
